From US8329895B2, “Cefdinir acid double salt and method for producing the same” (Zhejiang Adamerck Biopharmlabs Inc., priority 2008, dated 2012)
Structures can show the parent of a compound that is named as a salt. Where two headings read alike, the source gives them in different places. Values belong to the molecule of their own block, whether it stands above or below them.

What was measured:
[1] = Bioavailability comparison in beagles, capsules by intragastric administration, cefdinir concentration in venous blood; assay type: in vivo; details: for AUC(0-t) / Cmax / Time to peak / AUC(0-10): capsules containing 200 mg of cefdinir, intragastric administration; for AUC(0-t) / AUC(0-10): 0-10 h; for Cmax: cefdinir in venous blood; for Bioavailability percentage increase: compared with conventional cefdinir capsule
Method: Beagles, half male and half female, with body weight of 10 kg, were starved for 12 hrs and only water fed. The compounds of the invention were formulated into capsules containing 200 mg of cefdinir and fed to beagles by intragastric administration. The control group was administered with conventional cefdinir capsules. 3 hrs later, the beagles were fed with common food. At 0 h, 0.5 h, 1 h, 1.5 h, 2 h, 2.5 h, 3 h, 4 h, 6 h, 8 h, and 10 h after intragastric administration, 0.5 mL of venous blood was collected respectively to measure the concentration of cefdinir.

[2] = Solubility of cefdinir and the double salts in water; assay type: physicochemical
Text: The solubility of the compounds of the invention has been increased by 100 times. Table 1 lists the solubility of the compounds of the invention.)

[3] = cited from earlier work
[4] = background statement; cited from earlier work
[5] = heating; salt disclosed in CN 1,415,615A; cited from earlier work
[6] = both sexes, beagle, dog, venous blood, po, 200 mg
[7] = both sexes, beagle, dog, venous blood, po, 200 mg, read-out: Cmax

AUC(0-t) [1, 6]: 240 µg·h/mL | Cmax [1, 7]: 50200 ng/mL
Compound: C=CC1=C(C(=O)O)N2C(=O)C(NC(=O)/C(=N\O)c3csc(N)n3)C2SC1 (single isomer, unassigned; (-))

Time to peak [1]: 2.5 h | AUC(0-10) [1]: 160.31 µg·h/mL | Cmax [1]: 34120 ng/mL | Bioavailability percentage increase [1]: 57% | Solubility [2]: Soluble
Compound: C=CC1=C(C(=O)O)N2C(=O)C(NC(=O)/C(=N\O)c3csc(N)n3)C2SC1 (single isomer, unassigned; (-)) [Cefdinir ammonium(0.5) hydrogen(1.5) sulfate]

Time to peak [1]: 3 h | AUC(0-10) [1]: 213.40 µg·h/mL | Cmax [1]: 47650 ng/mL | Bioavailability percentage increase [1]: 109% | Solubility [2]: Soluble
Compound: C=CC1=C(C(=O)O)N2C(=O)C(NC(=O)/C(=N\O)c3csc(N)n3)C2SC1 (single isomer, unassigned; (-)) [Cefdinir potassium(0.5) hydrogen(1.5) sulfate]

Time to peak [1]: 3 h | Bioavailability percentage increase [1]: 135% | Solubility [2]: Soluble
Compound: C=CC1=C(C(=O)O)N2C(=O)C(NC(=O)/C(=N\O)c3csc(N)n3)C2SC1 (single isomer, unassigned; (-)) [Cefdinir sodium(0.5) hydrogen(1.5) sulfate]

Compound: C=CC1=C(C(=O)O)N2C(=O)[C@@H](NC(=O)/C(=N\O)c3csc(N)n3)[C@H]2SC1 [Cefdinir ammonium hydrogen sulfate, (−)-(6R,7R)-7-((Z)-2-(2-aminothiazole-4-yl)-2-hydroxyimino-acetylamino)-8-oxo-3-vinyl-5-thia-1-azabicyclo(4.2.0)oct-2-ene-2-carboxylic acid ammonium hydrogen sulfate]
AUC(0-10) ([1]; ammonium hydrogen sulfate): 202.18 µg·h/mL | Time to peak ([1]; ammonium hydrogen sulfate): 3 h | Cmax ([1]; ammonium hydrogen sulfate): 43630 ng/mL | Bioavailability percentage increase ([1]; ammonium hydrogen sulfate): 98% | Solubility ([2]; ammonium hydrogen sulfate): Slightly soluble

Compound: C=CC1=C(C(=O)O)N2C(=O)[C@@H](NC(=O)/C(=N\O)c3csc(N)n3)[C@H]2SC1 [Cefdinir potassium dihydrogen phosphate, (−)-(6R,7R)-7-((Z)-2-(2-aminothiazole-4-yl)-2-hydroxyimino-acetylamino) 8-oxo-3-vinyl-5-thia-1-azabicyclo(4.2.0)oct-2-ene-2-carboxylic acid potassium dihydrogen phosphate]
AUC(0-10) ([1]; phosphate): 152.15 µg·h/mL | Cmax ([1]; phosphate): 30370 ng/mL | Time to peak ([1]; phosphate): 3 h | Bioavailability percentage increase ([1]; phosphate): 49%

Compound: C=CC1=C(C(=O)O)N2C(=O)[C@@H](NC(=O)/C(=N\O)c3csc(N)n3)[C@H]2SC1 [Cefdinir potassium hydrogen sulfate, (−)-(6R,7R)-7-((Z)-2-(2-aminothiazole-4-yl)-2-hydroxyimino-acetylamino)-8-oxo-3-vinyl-5-thia-1-azabicyclo(4.2.0)oct-2-ene-2-carboxylic acid potassium hydrogen sulfate]
AUC(0-t) [1, 6]: 261 µg·h/mL | Cmax [1, 7]: 54100 ng/mL | Time to peak ([1]; potassium hydrogen sulfate): 2.5 h | Bioavailability percentage increase ([1]; potassium hydrogen sulfate): 156% | Solubility ([2]; potassium hydrogen sulfate): Slightly soluble

Compound: C=CC1=C(C(=O)O)N2C(=O)[C@@H](NC(=O)/C(=N\O)c3csc(N)n3)[C@H]2SC1 [Cefdinir sodium dihydrogen phosphate, (−)-(6R,7R)-7-((Z)-2-(2-aminothiazole-4-yl)-2-hydroxyimino-acetylamino)-8-oxo-3-vinyl-5-thia-1-azabicyclo(4.2.0)oct-2-ene-2-carboxylic acid sodium dihydrogen phosphate]
AUC(0-10) ([1]; phosphate): 123.55 µg·h/mL | Cmax ([1]; phosphate): 27280 ng/mL | Time to peak ([1]; phosphate): 2.5 h | Bioavailability percentage increase ([1]; phosphate): 20% | Solubility ([2]; phosphate): Slightly soluble

Compound: C=CC1=C(C(=O)O)N2C(=O)[C@@H](NC(=O)/C(=N\O)c3csc(N)n3)[C@H]2SC1 [Cefdinir sodium hydrogen sulfate, (−)-(6R,7R)-7-((Z)-2-(2-aminothiazole-4-yl)-2-hydroxyimino-acetylamino)-8-oxo-3-vinyl-5-thia-1-azabicyclo(4.2.0)oct-2-ene-2-carboxylic acid sodium hydrogen sulfate]
AUC(0-10) ([1]; sodium hydrogen sulfate): 255.27 µg·h/mL | Cmax ([1]; sodium hydrogen sulfate): 65430 ng/mL | Time to peak ([1]; sodium hydrogen sulfate): 3 h | Bioavailability percentage increase ([1]; sodium hydrogen sulfate): 149% | Solubility ([2]; sodium hydrogen sulfate): Slightly soluble

Compound: C=CC1=C(C(=O)O)N2C(=O)[C@@H](NC(=O)/C(=N\O)c3csc(N)n3)[C@H]2SC1 [Cefdinir]
bioavailability ([3]; capsule): 16-20% | bioavailability ([3]; liquid suspension): 25% | Solubility in water [4]: insoluble | Solubility [2]: hardly soluble

Compound: C=CC1=C(C(=O)[O-])N2C(=O)C(NC(=O)C(=NO)c3csc(N)n3)C2SC1.[Na+] (stereo not drawn) [sodium cefdinir]
Temperature at which the salt turns black [5]: 190 °C | Temperature at which the salt turns yellow [5]: about 160 °C
